US7045495B2 (Sloan-Kettering Institute for Cancer Research, priority 1996, dated 2006)
Where “and” joins values, the source holds several entries; their conditions need not be identical. Equal entries are not always repeated. Structures can show the parent of a compound that is named as a salt. Where two headings read alike, the source gives them in different places.

Columns and labels:
MKN-74 cells [1] = experiment: apoptosis by QFM, Hoechst-33258 staining; format: cell-based, human
Method: Apoptosis was measured by two different methods: (i) Quantitative fluorescent microscopy (QFM) of nuclear changes induced by apoptosis, as determined by bisbenzimide trihydrochloride (Hoescht-33258) staining of nuclear chromatin (15), and (ii) a terminal deoxynucleotidyl transferase (TdT) assay that labels the 3′-OH ends of DNA fragments produced in apoptotic cells (16). […] MMC was diluted in water. A stock safingol solution was constituted in DMSO and was subsequently diluted at least 1:100 in media for all experiments. […] For QFM determinations, the cells were fixed in 3% paraformaldehyde and incubated at room temperature for 10 minutes. The fixative was removed and the cells were washed with 1×PBS, resuspended in 20 μl 1×PBS containing only 8 μg/ml of bisbenzimide trihydrochloride (Hoechst #33258), and incubated at room temperature for 15 minutes. Aliquots of the cells (10 μl) were placed on glass slides coated with 3-amino-propyl-triethoxysilane, and duplicate samples of 500 cells each were counted and scored for the incidence of apoptotic chromatin condensation using an Olympus BH-2 fluorescence microscope equipped with a BH2-DM2U2UV Dich. Mirror Cube filter (Olympus, Lake Success, N.Y.). For the TdT assays, the ApopTag Kit (Oncor, Gaithersburg, Md.) was used. This method employs a fluoresceinated antidigoxigenin antibody directed against nucleotides of digoxigenin-11-dUTP (d-dUTP) which are catalytically added to the 3-ends fragmented DNA by TdT. Briefly, 1–2×10^6 cells were washed and fixed with 1% paraformaldehyde. The fixed cells were incubated in a reaction mixture containing TdT and d-dUTP for 30 minutes at 37° C. Stop/wash buffer was added, and the cells were resuspended in 100 μl of fluorescinated anti-digoxigenin antibody for 30 minutes at room temperature. The cells were then washed with 0.1% Triton X-100 and counterstained with propidium iodide (PI) solution. Green (d-dUTP labeled DNA strand breaks) and red (PI staining for total DNA content) fluorescence of individual cells were measured on a FACScan flow cytometer (Becton Dickinson, San Jose, Calif.). The resulting bivariate plots enabled the detection of apoptotic events within the cell cycle. The R1 cursor was set using the control specimen to define normal levels of green fluorescence (i.e., basal levels of apoptosis). Cells with fluorescence above the R, cursor were considered apoptotic. The data from 10,000 cells were collected and analyzed using CellFit and LYSYS software (Becton Dickinson).
Apoptosis was again measured by QFM staining.
(§1) Induction of apoptosis was estimated by counting the frequency of condensed nuclear chromatin with Hoechst-33258 stain in duplicate samples of 400 cells.
For these studies apoptosis was measured by quantitative fluorescent microscopy (QFM) determination with bisbenzimide trihydrochloride stain (Hoescht-33258) for condensed nuclear chromatin characteristic of apoptotic cells.
For QFM determinations 500 cells were counted and scored for the incidence of apoptotic chromatin changes under an Olympus BH-2 fluorescence microscope in duplicate samples, ±SD, using a BH2-DM2U2UV Dich. Mirror Cube filter.
To study this further applicants elected to examine five bis-indolylmaleimides with various potencies against PKC. […] The induction of apoptosis was estimated by counting the frequency of condensed nuclear chromatin with Hoechst-33258 stain in duplicate samples of 400 cells.

[2] = system: MDA-MB-468 breast cancer cells; experiment: apoptosis by QFM, Hoechst-33258 staining; format: cell-based, human; details: MDA-MB-468; flavopiridol, MMC
Method: PRELIMINARY STUDIES. […] Apoptosis was measured by quantitative fluorescent microscopy (QFM) of nuclear changes induced by apoptosis, as determined by bisbenzimide trihydrochloride (Hoescht-33258) staining of condensed nuclear chromatin (24). For the QFM duplicate samples of 500 cells each were counted and scored for the incidence of apoptotic chromatin condensation using an Olympus BH-2 fluorescence microscope.
Applicants also tested the PKC inhibitor UCN-01 (27) which is currently in phase I clinical trial at the NCI. In contrast to safingol, which inhibits PKC by binding to its regulatory domain, UCN-01 inhibits PKC at its catalytic domain. Therefore, assessment of the effect of UCN-01 on inducing apoptosis in combination with MMC on MDA-MB-468 was also performed. The QFM method to quantitate apoptosis was again used. The conditions tested were identical to those described above for safingol except UCN-01 (1 μM) was substituted for safingol in all the conditions.
as §1

[3] = system: PKC obtained from MKN-74 gastric cancer cells; experiment: PKC purified from MKN-74 cells, phosphorylation of myelin basic protein; format: biochemical, human; details: for PKC activity: no drug 25,000
Text: For these experiments MKN-74 cells were homogenized and PKC was purified on a DEAE cellulose column as described (37). […] A control sample was also run with the PKC pseudosubstrate, which functions as an established PKC inhibitor. The results, as shown in the table below, are expressed as the absolute counts of [^32P]ATP incorporated into myelin basic protein/minute of assay time: […]

183CLL = experiment: trypan blue exclusion and alamar blue assays; format: cell-based; details: FLAVO 24 hours
Text: (§2) Over-expression of bcl-2 has been associated with resistance to chemotherapy and inhibition of apoptosis.

MKN-74 cells [4] = experiment: trypan blue exclusion and alamar blue assays; format: cell-based; details: Homo sapiens, FLAVO 24 hours
Text: as §2

OV432 = experiment: trypan blue exclusion and alamar blue assays; format: cell-based; details: FLAVO 24 hours
Text: as §2

bcl-2 in OV432 cells = experiment: bcl-2 expression by Western immunoblotting; format: cell-based; details: FLAVO concentrations as low as 50 nM
Text: as §2

bcl-2 in MKN-74 cells = experiment: bcl-2 expression by Western immunoblotting; format: cell-based, human; details: 300 nM of FLAVO; co-treatment with MMC 50 μM
Text: as §2

PKC = details: flavopiridol; read-out: IC50, PKC enzyme activity; cited from earlier work
[5] = target: cyclic-adenosine monophosphate-dependent protein kinase A; details: flavopiridol; read-out: IC50, cyclic AMP-dependent protein kinase; cited from earlier work
SUDHL-4 lymphoma cells = details: cited from earlier work
[6] = system: PC-3 prostate cancer cells; details: cited from earlier work
[7] = system: A549, HCT 8, T986, MCF-7 and HL-60 human cancer cell lines; details: cited from earlier work
MDA-MB-468 cells = details: cited from earlier work
[8] = Fischer 344 rats, cited from earlier work
[9] = second phase I trial; cited from earlier work
[10] = cited from earlier work
[11] = dog, in vivo, iv, 2.6 mg/kg; cited from earlier work
MKN-74 [12] = experiment: clonogenic assay, resistance relative to MKN-74; format: cell-based, human; details: MKN-74 (reference); 10 μg/ml CDDP, 5 μg/ml MMC, 50 FM 5-FU
Text: (§3) The basis of drug resistance in these disease has not been well defined. […] For gastric cancer applicants have been successful in establishing five long-term cell lines, SK-GT-1, SK-GT-2, SK-GT-4, SK-GT-5, and SK-GT-6 for Sloan Kettering Gastric Tumor (12,13) none of which express P-glycoprotein (14). Yet, all these tumors are resistant to chemotherapy and to the induction of apoptosis. Applicants have reported that the relative sensitivity of these gastric cancer cells to chemotherapy is influenced by their p53 status (14).

NU-GC-4 = experiment: clonogenic assay, resistance relative to MKN-74; format: cell-based, human; details: 10 μg/ml CDDP, 5 μg/ml MMC
Text: as §3

SK-GT-1 = experiment: clonogenic assay, resistance relative to MKN-74; format: cell-based, human; details: clonogenic survival ratio, 10 μg/ml CDDP, 5 μg/ml MMC, 50 FM 5-FU
Text: as §3

SK-GT-2 = experiment: clonogenic assay, resistance relative to MKN-74; format: cell-based, human; details: 10 μg/ml CDDP, 5 μg/ml MMC, 50 FM 5-FU
Text: as §3

SK-GT-5 = experiment: clonogenic assay, resistance relative to MKN-74; format: cell-based, human; details: 10 μg/ml CDDP, 5 μg/ml MMC, 50 FM 5-FU
Text: as §3

MKN-74 [13] = experiment: cell viability, trypan blue dye exclusion; format: cell-based, human; details: 24 hours, single drug or concomitant; bryostatin 1 μM, Mitomycin-C 1 μg/ml, Taxol 50 μM, Cisplatin 50 μM
Text: Recently our laboratory has studied the effects of combining bryostatin with chemotherapy both in vitro and in vivo against solid tumors. For our in vitro studies, we have been using the human gastric cancer cell line MKN-74. Cytotoxicity has been examined both by cell viability assays using trypan blue dye exclusion assays and by the induction of apoptosis using quantitative fluorescent microscopy.

16C mammary carcinoma = details: cisplatin 10 mg/kg i.v.; safingol 20 mg/kg i.p.; cited from earlier work

## CN1CC[C@H](c2c(O)cc(O)c3c(=O)cc(-c4ccccc4Cl)oc23)[C@H](O)C1 (relative stereo) [flavopiridol, 2-(2-chlorophenyl)-5,7-dihydroxy-8-(cis-3-hydroxy-1-methyl-4-piperidinyl)-4H-1-benzopyran-4-one, hydrochloride]
MKN-74 cells [1]; 24 h continuous (single drug) or concomitant, flavopiridol 300 nM, MMC 1 μg/ml, paclitaxel 50 μM, carboplatin, hydrochloride
  Percent Apoptosis: 12%±1% and 11.6%±1%
MKN-74 cells [1]; 24 hours, FLAVO 300 nM, Taxol 50 μM, MMC 1 μg/ml, single drugs or in combination
  % APOPTOSIS: 17%
MKN-74 cells [1]; 24 hours, FLAVO 300 nM, Taxol 50 μM, MMC 1 μg/ml, single drugs or together
  percent induction of apoptosis, Concomitant: 17% ± 2%
MKN-74 cells [1]; FIG. 7, 24 hours, flavopiridol 300 nM, MMC 50 μM (as printed b127)
  induction of apoptosis (QFM): 17%±2%
MKN-74 cells [1]; MKN-74, 24 hours, Flavo 300 nM, MMC 5 μg/ml
  induction of apoptosis (condensed chromatin, 400 cells): 17% ± 2
[2]
  percentage of cells undergoing apoptosis: 29%±2%
[3]; Flavopiridol 34 nM
  Percent inhibition of PKC activity: 84%
  PKC activity: 4,000 counts of [^32P]ATP incorporated into myelin basic protein/minute
[3]; Flavopiridol 340 nM
  Percent inhibition of PKC activity: 87%
  PKC activity: 3,300 counts of [^32P]ATP incorporated into myelin basic protein/minute
183CLL
  IC50: 400 nM
MKN-74 cells [4]
  IC50: > 800 nM
OV432
  IC50: 100 nM
bcl-2 in OV432 cells
  bcl-2 expression: complete loss of bcl-2
bcl-2 in MKN-74 cells
  bcl-2 expression: failed to induce any decrease in bcl-2
PKC
  IC50: 6000 nM
[5]
  IC50: 145000 nM
SUDHL-4 lymphoma cells
  concentration inducing apoptosis: 100 nM
[6]
  concentration required to produce a similar effect (apoptosis): at least 1000 nM
[7]
  concentration range inhibiting colony formation: 250 to 300 nM
MDA-MB-468 cells; exposure for 24 hours
  cytotoxicity: essentially no cytotoxicity
MDA-MB-468 cells; prolonged exposure for 72 hours
  cell proliferation: inhibits cell proliferation
[8]
  Maximal plasma drug concentration (Cmax): 9500 ng/mL
  Plasma clearance: 58 mL/min/kg
  elimination half-life (T1/2): 1.87 h
[8]; read-out: Maximal plasma drug concentration (Cmax)
  Cmax: 21.7 µM
[9]
  t1/2: 14 h
[10]; one phase I study, 72 hour infusion every 2 weeks
  MTD: 50 mg/m^2/day
[10]; the other phase I trial
  MTD: 56 mg/m^2/day
[11]
  tolerability: tolerated without evidence of significant toxicity

## O=c1[nH]cc(F)c(=O)[nH]1 [5-FU, 5-Fluorouracil]
MKN-74 [12]
  Fold-Increase in Resistance Relative to MKN-74 (p53wt): 1X
NU-GC-4
  Fold-Increase in Resistance Relative to MKN-74 (p53wt): 0.6X
SK-GT-1
  Fold-Increase in Resistance Relative to MKN-74 (p53wt): 11X
SK-GT-2
  Fold-Increase in Resistance Relative to MKN-74 (p53wt): 12X
SK-GT-5
  Fold-Increase in Resistance Relative to MKN-74 (p53wt): 6X

## N.N.[Cl][Pt][Cl] [cisplatin, Cisplatin]
MKN-74 [12]
  Fold-Increase in Resistance Relative to MKN-74 (p53wt): 1X
NU-GC-4
  Fold-Increase in Resistance Relative to MKN-74 (p53wt): 2X
SK-GT-1
  Fold-Increase in Resistance Relative to MKN-74 (p53wt): 21X
SK-GT-2
  Fold-Increase in Resistance Relative to MKN-74 (p53wt): 11X
SK-GT-5
  Fold-Increase in Resistance Relative to MKN-74 (p53wt): 12X
MKN-74 [13]
  % of Cells Alive: 60%
16C mammary carcinoma
  time for tumor to reach 5 times its starting size: 10 days
